Assay results: patent US6286513A, “Methods for treating superficial bladder carcinoma” (priority 1998, dated 2001)

Experiments:
[1] = test system: multifocal Ta, T1, Tis tumors; test: Recurrence in patients with multifocal tumors (Example 3, FIG. 9); type: in vivo
Experimental: Sixty-five of patients from whom 3 or more Ta, T1,or Tis tumors had been removed were treated weekly for six weeks with the high efficacy therapy as described above in example 1 and 52 patients from whom 3 or more Ta, T1, or Tis tumors had been removed were treated weekly for six weeks with standard MMC intravsical therapy as described in example 1. All patients received the follow-up described in example 1.

[2] = test system: high grade tumors (grade III); test: Recurrence in patients with high grade tumors (Example 6); type: in vivo
Experimental: Twenty-seven patients from whom high grade tumors (i.e., grade III)had been removed were treated weekly for six weeks with the high efficacy therapy as described above in example 1 and 23 patients from whom high grade tumors had been removed were treated weekly for six weeks with the customary experimental therapy as described in example 1. All patients were evaluated as described in example 1. The median time to recurrence was not reached for patients treated by the high efficacy treatment versus 179 days for patients treated by the customary experimental treatment. The projected 5-year recurrence free value is 52% for the patients receiving the high efficacy treatment and 19% for the customary experimental treatment.

[3] = test system: low grade tumors (grade I and grade II); test: Recurrence in patients with low grade tumors (Example 5); type: in vivo
Experimental: Eighty-one patients from whom low grade tumors (i.e., grade I and grade II) had been removed were treated weekly for six weeks with the high efficacy therapy as described above in example 1 and 64 patients from whom low grade tumors were had been removed were treated weekly for six weeks with the customary experimental therapy as described in example 1. All patients were evaluated as described in example 1. The median time to recurrence was 637 days for patients treated by the high efficacy treatment versus 339 days for patients treated by the customary experimental treatment. The projected 5-year recurrence free value is 35% for the high efficacy treatment and 21% for the customary experimental treatment.

[4] = test system: superficial bladder carcinomas; settings: customary experimental MMC, weekly, 1 mg/ml in 20-40 ml, six to eight weeks; cited from earlier work
aneuploid tumors = test: Recurrence in patients with aneuploid tumors; type: in vivo; settings: high efficacy therapy
[5] = in vitro, previous results; cited from earlier work
[6] = Overall bladder wall exposure to MMC: urinary AUC, C^n×T, urine production and pH (Table 3); type: in vivo, patients; settings: for Urinary AUC / Urinary C^n × T: mean ± standard deviation; for Urinary C^n × T: n = 1.24
Excerpt: A commonly used measure of drug exposure for anticancer agent is the product of exposure concentration and duration, or AUC (area under the curve). […] The drug exposure in the urinary bladder can be determined from the drug concentration in the urine and can serve as a measure of exposure to the tumor tissue.

[7] = test system: recurrent Ta, T1 or Tis tumors; test: Recurrence in patients with recurrent tumors (Example 2, FIG. 12); type: in vivo; settings: for median time to recurrence / projected 5-year tumor recurrence free rate: recurrent tumors
Experimental: Seventy-seven patients from whom recurrent Ta, T1 or Tis tumors had been resected were treated weekly for six weeks with the high efficacy therapy as described above in example 1 and 68 patients from whom recurrent Ta, T1 or Tis tumors had been resected were treated by the customary experimental therapy as described in example 1. All patients had undergone at least one previous round of therapy, to several previous rounds of resection plus chemotherapy consisting of treatment with BCG, MMC, doxorubicin and doxorubicin and cisplatin. For example, 44 patients treated with the high efficacy treatment and 42 patients treated with the customary experimental method had at least two tumor resections. Thirty-eight patients in each of the two treatment arms fad received previous tumor resections plus at least one series of adjuvant chemotherapy. All patients were evaluated as described in example 1.

Tis tumors = test: Recurrence in patients with Tis tumors (Example 4); type: in vivo
Experimental: Ten patients from whom one or more foci of Tis had been removed were treated weekly for six weeks with the high efficacy therapy as described above in example 1 and 12 patients from whom one or more foci of Tis had been removed were treated weekly for six with the standard MMC intravesical therapy as described in example 1. […] The projected 5-year recurrence free rate is 43% for the high efficacy treatment and 19% for the standard treatment.

T1 tumors = test: Recurrence in patients with T1 tumors (Kaplan-Meier); type: in vivo
Excerpt: The Kaplan-Meier Curve is a conventional tool used to project treatment outcome such as the % of patients who remain alive or free of disease at a certain time interval. (Martin Bland, Introduction to Medical Statistics (1994) Oxford Press). The Kaplan Meier Curve was used to compare the customary experimental therapy to the high efficacy therapy. When compared to the customary experimental therapy, the high efficacy therapy increased the percentage of all patients who are projected to remain recurrence-freefor longer than 5 years from 20 to 41%. The improvement was similar for patients with T1 tumors which were growing in the deeper bladder tissue layers (i.e. increase from 16% to 44%) and for patients with Ta tumors which were growing in the urothelial surface of the bladder (i.e. increase from 20% to 37%).

[8] = customary experimental treatment
[9] = high efficacy vs customary experimental therapy

For `COC12C(COC(N)=O)C3=C(C(=O)C(C)=C(N)C3=O)N1CC1NC12` (stereo not shown) [MMC], the “projected 5-year recurrence free rate” value ([1]; customary experimental therapy, multifocal tumors) was 17%, the “projected 5-year recurrence free rate” value ([1]; high efficacy therapy, multifocal tumors) was 32% and the “delaying and preventing tumor recurrence, vs customary therapy” value ([1]; high efficacy therapy, multiple tumors) was “more effective”. The “median time to tumor recurrence” value ([1]; standard treatment (so in the source), multifocal tumors) was 488 days, the “median time to recurrence” value [2, 8] was 179 days and the “projected 5-year recurrence free value” [2, 8] was 19%. For the same molecule, the “median time to recurrence” value ([2]; high efficacy treatment) was “not reached”, the “projected 5-year recurrence free value” ([2]; high efficacy treatment) was 52% and the “median time to recurrence” value [3, 8] was 339 days. For the same molecule, the “projected 5-year recurrence free value” [3, 8] was 21%, the “median time to recurrence” value ([3]; high efficacy treatment) was 637 days and the “projected 5-year recurrence free value” ([3]; high efficacy treatment) was 35%. For the same molecule, the “additional patients without recurrent tumor at 1 year vs transurethral resection alone” value [4] was 1-13%, the “delaying and preventing tumor recurrence, vs customary therapy” value (aneuploid tumors) was “more effective” and the “relative importance of drug concentration and treatment duration” value [5] was “the drug concentration is more important than treatment duration”. For the same molecule, the “Urinary AUC” value ([6]; customary experimental therapy) was 24.2 ± 14.7 mg·min/mL, the “Urinary C^n × T” value ([6]; customary experimental therapy) was 97.2 ± 77.08 mg^n.min/ml and the “Urinary AUC” value ([6]; high efficacy therapy) was 57.6 ± 37.2 mg·min/mL. The “Urinary C^n × T” value ([6]; high efficacy therapy) was 291 ± 283 mg^n.min/ml, the “average drug exposure measured as AUC, high efficacy relative to customary” value [6, 9] was 2 times and the “average drug exposure measured as C^n×T, high efficacy relative to customary” value [6, 9] was 2.4 times. The “median time to recurrence” value ([7]; customary experimental therapy) was 339 days, the “projected 5-year tumor recurrence free rate” value ([7]; customary experimental therapy) was 26% and the “median time to recurrence” value ([7]; high efficacy therapy) was 754 days. For the same molecule, the “projected 5-year tumor recurrence free rate” value ([7]; high efficacy therapy) was 39%, the “delaying and preventing tumor recurrence, vs customary therapy” value ([7]; high efficacy therapy, recurrent tumors despite other adjuvant therapies) was “more effective” and the “(median time to recurrence; words missing in text)” value (Tis tumors; [8]) was 106 days. For the same molecule, the “projected 5-year recurrence free rate” value (Tis tumors; high efficacy treatment) was 43%, the “projected 5-year recurrence free rate” value (Tis tumors; standard treatment) was 19% and the “percentage of patients projected to remain recurrence-free for longer than 5 years” value (T1 tumors; customary experimental therapy) was 16%. For the same molecule, the “percentage of patients projected to remain recurrence-free for longer than 5 years” value (T1 tumors; high efficacy therapy) was 44%.
